One test has as its system HL-60. Nature of the test: Inhibitory activity on the proliferation of Human myeloid leukemia HL-60 cancer cells using MTT or sulforhodamine B assay. In kind it is functional, cell-based. Background: Sulforhodamine B stains cellular protein and so reports cell mass.
In test [1] the test system is A549. The experiment in a line: Inhibitory activity on the proliferation of Human lung carcinoma A549 cancer cells using MTT or sulforhodamine B assay. Type of test: functional, cell-based.
A short description of test [2]: Inhibitory activity on the proliferation of Human colon carcinoma […] cancer cells using MTT or sulforhodamine B assay. Type of test: functional, cell-based. The settings on record: Cancer cell lines.
A further test deals with HT-1080. The experiment in a line: Inhibitory activity on the proliferation of Human fibrosarcoma HT1080 cancer cells using MTT or sulforhodamine B assay. Type of test: functional, cell-based.
Test [3] deals with A549. Nature of the test: Effect of compound on cell cycle progression in Human lung A549 cancer cells at S phase after 24 hours of administration. Type of test: functional.
In test [4] the test system is A549. The experiment in a line: Effect of compound on cell cycle progression in Human lung A549 cancer cells at S phase after 16 hours of administration. Type of test: functional.
The subject of test [5] is A549. The experiment in a line: Effect of compound on cell cycle progression in Human lung A549 cancer cells at G0/G1 phase after 16 hours of administration. In kind it is functional.
Test [6] relates to A549. The experiment in a line: Effect of compound on cell cycle progression in Human lung A549 cancer cells at G0/G1 phase after 24 hours of administration. In kind it is functional.
The test system of test [7] is A549. Nature of the test: Effect of compound on cell cycle progression in Human lung A549 cancer cells at Sub-G0 phase after 16 hours of administration. In kind it is functional.
Test [8] relates to A549. The experiment in a line: Effect of compound on cell cycle progression in Human lung A549 cancer cells at Sub-G0 phase after 24 hours of administration. In kind it is functional.
The subject of test [9] is A549. Nature of the test: Effect of compound on cell cycle progression in Human lung A549 cancer cells at Sub-G0 phase after 8 hours of administration. In kind it is functional.
Test [10] concerns A549. The experiment in a line: Effect of compound on cell cycle progression in Human lung A549 cancer cells at S phase after 8 hours of administration. Type of test: functional.
Test [11] relates to A549. The experiment in a line: Effect of compound on cell cycle progression in Human lung A549 cancer cells at G0/G1 phase after 8 hours of administration. In kind it is functional.
The test system of test [12] is A549. The experiment in a line: Effect of compound on cell cycle progression in Human lung A549 cancer cells at G2/M phase after 8 hours of administration. Type of test: functional.
For test [13], the system named is A549. The experiment in a line: Effect of compound on cell cycle progression in Human lung A549 cancer cells at G2/M phase after 24 hours of administration. In kind it is functional.
Test [14] relates to A549. The experiment in a line: Effect of compound on cell cycle progression in Human lung A549 cancer cells at G2/M phase after 16 hours of administration. In kind it is functional.

Experimental findings from ChEMBL document CHEMBL1140278, “Induction of apoptosis by a novel indirubin-5-nitro-3'-monoxime, a CDK inhibitor, in human lung cancer cells” (Bioorg Med Chem Lett, 2005) are described below.

Regarding `O=C1C(c2c(O)[nH]c3ccc(S(=O)(=O)O)cc23)=Nc2ccccc21`, the half-maximal inhibitory concentration (IC50) (with HL-60; in the test on A549 [1]; in test [2]; in the test on HT-1080) was above 100 µM in each case.

For `O=Nc1c(-c2c(O)[nH]c3ccccc23)[nH]c2ccccc12` [INDIRUBIN-3-MONOXIME], the IC50 with HL-60 is above 100 µM; in the test on A549 [1], 62 µM; in [2], above 100 µM; in the test on HT-1080, 4.8 µM.

`O=C1Nc2ccccc2/C1=C1/Nc2ccccc2C1=O` [INDIRUBIN]: the IC50 in the test on HL-60 is above 100 µM; with A549 [1], 31 µM; in [2], above 100 µM; in the test on HT-1080, 42.2 µM.

In the case of `O=Nc1c(-c2c(O)[nH]c3ccc([N+](=O)[O-])cc23)[nH]c2ccccc12`, the Activity in the test with A549 [3] was found to be 16.1%; in the test with A549 [4] it was 31.8%; in the test on A549 [5], 46.5%; in the test with A549 [6], 39.9%; in the test with A549 [7], 0%; in the test on A549 [8], 22%. Further, the Activity in the test with A549 [9] was 0%; in the test with A549 [10], 26.8%; in the test with A549 [11], 46.1%; in the test on A549 [12] it was 27.1%; in the test with A549 [13] it was 22%; with A549 [14], 21.7%. Also, the half-inhibitory concentration (IC50) in the test with HL-60 came to 9.2 µM; with A549 [1], 5.4 µM; in test [2], 25.5 µM; in the test with HT-1080 it was 5.9 µM.

The IC50 is the concentration at which inhibition is half-maximal. Low values mean inhibition by little substance, high ones a need for much substance.
